Assay results published in article PMC9220410, “Antiamoebic Properties of Laboratory and Clinically Used Drugs against Naegleria fowleri and Balamuthia mandrillaris” (Antibiotics, 2022).
Read-outs that look alike come from different tables or passages of the source.

Assays:
N. fowleri trophozoites = experiment: Amoebicidal assay against N. fowleri trophozoites (Trypan blue); format: cell-based, Naegleria fowleri; details: for minimal effective concentration / EC50: Naegleria fowleri; for minimal effective concentration: read-out: Lowest concentration showing significant amoebicidal activity against N. fowleri; for EC50: read-out: Half maximal effective concentration (EC50), N. fowleri; for Amoebicidal activity against N. fowleri: summary in discussion, concentration not given
Protocol: (§1) Amoebicidal assays were performed as previously described. Briefly, 5 × 10^5 amoebae (N. fowleri and B. mandrillaris cells) were incubated with drugs and/or solvents in 24-well plates in RPMI-1640. Amoebae were incubated with RPMI-1640 for negative controls while DMSO and ethanol were used as solvent control. For the positive control, the anti-amoebic drug, 100 μM miltefosine was used. Plates were incubated at 37 °C and 5% CO2 for 24 h. Next, 0.1% Trypan blue was added to each well. […] The number of live cells (i.e., unstained) was counted using a haemocytometer to determine amoebicidal effects of various compounds. The data are representative of the mean ± standard error of several experiments performed in duplicate.
(§2) Figure 1 The amoebicidal activities of compounds against N. fowleri trophozoites. N. fowleri trophozoites were incubated with various concentrations of compounds for 24 h and trophozoites viability was determined using Trypan blue. Percentage amoebicidal activity was calculated by: [((RPMI cell count − cell count for sample)/RPMI cell count) × 100)]. The activities of solvents alone were negated from the activities of the compounds. The data is presented as the mean ± standard error (*: p < 0.05, **: p < 0.01, ***: p < 0.001 using student t-test; two tailed distribution).

N. fowleri cysts = experiment: Excystation assay, N. fowleri cysts; format: cell-based, Naegleria fowleri; details: for inhibition at 100 µM: Naegleria fowleri, read-out: Inhibition of excystation of N. fowleri
Protocol: (§3) Briefly, 5 × 10^5 amoebae cysts (N. fowleri and B. mandrillaris cells) were incubated with 100 μM drugs and/or solvent in 24-well plates containing RPMI-1640 on HeLa monolayers at 37 °C and 5% CO2 until around 75% of the cysts in RPMI-1640 alone have excysted. The RPMI-1640 alone was used as a negative control while DMSO and ethanol were used as a solvent control and 100 μM miltefosine was used as positive control. Live trophozoites (amoebae that excysted) were then quantified by counting live (unstained) cells, after addition of 0.1% Trypan blue to each well, using a haemocytometer. Percentage inhibition is defined as: [(Number of trophozoites in untreated well − Number of trophozoites in treated well)/Number of trophozoites in untreated well)] × 100. The data are representative of the mean ± standard error of several independent experiments performed in duplicate.
(§4) Figure 3 (A) Inhibition of excystation of N. fowleri cysts. N. fowleri cysts were incubated with 100 μM drugs and/or solvent in 24-well plates containing RPMI-1640 on HeLa monolayers for 24 h and number of viable trophozoites were then enumerated. Percentage inhibition of excystation was calculated by: [((RPMI trophozoite cell count − trophozoite cell count for sample)/RPMI trophozoite cell count) × 100)]. The activities of solvents alone were negated from the activities of the compounds. The data is presented as the mean ± standard error (*: p ˂ 0.05, **: p < 0.01, ***: p < 0.001 using student t-test; two tailed distribution). (B) Inhibition of excystation of B. mandrillaris cysts. B. mandrillaris cysts were incubated with 100 μM drugs and/or solvent in 24-well plates containing RPMI-1640 on HeLa monolayers for 24 h and number of viable trophozoites were then enumerated. Percentage inhibition of excystation was calculated by: [((RPMI trophozoite cell count − trophozoite cell count for sample)/RPMI trophozoite cell count) × 100)]. The activities of solvents alone were negated from the activities of the compounds. The data is presented as the mean ± standard error (*: p ˂ 0.05, **: p < 0.01, ***: p < 0.001 using student t-test; two tailed distribution).

B. mandrillaris cysts = experiment: Excystation assay, B. mandrillaris cysts; format: cell-based; details: Balamuthia mandrillaris, read-out: Inhibition of excystation of B. mandrillaris
Protocol: as §3, §4

HaCaT cells = format: cell-based, human
Protocol: Cytotoxic effects of the drugs were determined as previously described^21. Briefly, the cytotoxic activity of the drugs was investigated against HaCaT cells. […] The LDH assay protocol is based on an enzymatic reaction, i.e., LDH released from the cell oxidizes lactate to generate NADH, which then reacts with water-soluble tetrazolium salt (WST) to generate a yellow color. The intensity of the generated color correlates directly with the number of lyzed cells. Following this, 1% Triton X-100 was added to the positive control well and incubated the plate for 60 min at 37 °C. For negative control, human cells were grown in RPMI alone well. Then, an equal amount of cells supernatant (comprising LDH enzyme) from each well was combined with equal amount of LDH kit reagents and cytotoxicity was determined in proportion to LDH released from human cells using a spectrophotometer at 490 nm. The percentage LDH released was determined as follows: [(Absorbance of sample − Absorbance of control)/(Absorbance for total LDH release − Absorbance of control)] × 100 = percentage cytotoxicity.
Figure 4 Cytotoxic effects of compounds against human cells are depicted. Various concentrations of compounds were incubated with human cells for 24 h at 37 °C and 5% CO2. RPMI alone was used as negative control and triton X-100 was used as positive control. Data are presented as the mean ± standard error of 2 experiments conducted in duplicates.

[1] = test system: B. mandrillaris trophozoites; experiment: Amoebicidal assay against B. mandrillaris trophozoites (Trypan blue); format: cell-based, Balamuthia mandrillaris; details: for EC50 / Concentration showing significant amoebicidal activity against B. mandrillaris: 24 h; for EC50: read-out: Half maximal effective concentration (EC50), B. mandrillaris; for Concentration showing significant amoebicidal activity against B. mandrillaris: compared to solvent control; for Amoebicidal activity against B. mandrillaris: summary in discussion, concentration not given
Protocol: as §1
as §2, with “Figure 2” for “Figure 1”, “against B. mandrillaris” for “against N. fowleri”, “trophozoites. B. mandrillaris” for “trophozoites. N. fowleri”

[2] = design: method as in PMID 29206032, PMID 32548431; details: ref [24],[25],[26]; cited from earlier work
[3] = compared to solvent control, p < 0.05, 24 h
[4] = trophozoites, 24 h, Trypan blue
[5] = 100 μM, after negating effects of solvent alone
[6] = LDH release, 24 h, concentration not given
[7] = Balamuthia mandrillaris, trophozoites, Trypan blue

| Compound | minimal effective concentration (N. fowleri trophozoites; [3]) [µM] | EC50 (N. fowleri trophozoites; [4]) [µM] | inhibition at 100 µM (N. fowleri cysts; [5]) [%] | inhibition at 100 µM (B. mandrillaris cysts; [5]) [%] | Cytotoxicity against HaCaT cells (HaCaT cells; [6]) [%] | EC50 (N. fowleri trophozoites; 24 h) [µM] | Amoebicidal activity against N. fowleri (N. fowleri trophozoites) [%] | EC50 ([1]; Balamuthia mandrillaris) [µM] | Concentration showing significant amoebicidal activity against B. mandrillaris [1] [µM] | Amoebicidal activity against B. mandrillaris [1] [%] | inhibition at 100 µM (N. fowleri cysts) [%] | inhibition at 100 µM (B. mandrillaris cysts) [%] | EC50 [1, 7] [µM] | other results |
| --- | --- | --- | --- | --- | --- | --- | --- | --- | --- | --- | --- | --- | --- | --- |
| O=C(O)/C=C/c1ccccc1 [Trans-cinnamic acid, (E)-3-phenylprop-2-enoic acid] | ≥ 3.13 | 9.4 | 59 | 32 | 8 | – | – | – | – | – | – | – | – | – |
| Cc1ccc2c(c1)C(Nc1nc(N)nc(C(C)F)n1)C(C)C2 (centres unmarked) [Indaziflam, N-(2,3-dihydro-2,6-dimethyl-1H-inden-1-yl)-6-(1-fluoroethyl)-1,3,5-triazine-2,4-diamine] | – | – | – | – | 4 | 53.7 | 62 | 99.8 | 50 | 52 | 68 | 52 | – | minimal effective concentration (N. fowleri trophozoites; 24 h): 12.5 µM |
| Cellulase | – | – | – | – | – | – | – | – | 100 | – | – | – | – | Lowest concentration showing significant amoebicidal activity against N. fowleri (N. fowleri trophozoites; [3]): did not show anti-N. fowleri effects at any concentration tested; EC50 ([1]; trophozoites, Trypan blue): 106 µM; Inhibition of excystation of N. fowleri (N. fowleri cysts; [5]): 39%; Cytotoxicity against HaCaT cells (HaCaT cells): did not exhibit any cytotoxicity |
| CCNc1nc(Cl)nc(NC(C)(C)C)n1 [Terbuthylazine, 2-N-tert-butyl-6-chloro-4-N-ethyl-1,3,5-triazine-2,4-diamine] | ≥ 3.13 | 7.5 | 29 | < 10 | 2 | – | 63 | – | – | 61 | – | – | 62.5 | – |
| CN1C(=O)[C@](O)(Cc2cccc(O)c2)N(C)C(=O)[C@@H]1Cc1c[nH]c2cccc([N+](=O)[O-])c12 [Thaxtomin A, (3R,6S)-3-hydroxy-3-[(3-hydroxyphenyl)methyl]-1,4-dimethyl-6-[(4-nitro-1H-indol-3-yl)methyl]piperazine-2,5-dione] | – | – | – | – | 4 | 94.7 | – | 39 | – | – | 22 | < 10 | – | Lowest concentration showing significant amoebicidal activity against N. fowleri (N. fowleri trophozoites; [3]): did not show anti-N. fowleri effects at any concentration tested |
| OC1C(O)C(O)C(O)C(O)C1O (centres unmarked) [Inositol, cyclohexane-1,2,3,4,5,6-hexol] | ≥ 6.25 | 48.9 | 12 | – | 4 | – | – | – | 6.25 | – | – | – | 124 | BBB Permeability [2]: Present in brain |
| O=C(O)c1c(Cl)ccc2cc(Cl)cnc12 [Quinclorac, 3,7-Dichloro-8-quinolinecarboxylic acid] | ≥ 25 | 102 | 30 | 53 | 6 | – | – | – | 50 | – | – | – | 297 | – |
| N#Cc1c(Cl)cccc1Cl [Dichlobenil (2,6-DNBT), 2,6-dichlorobenzonitrile] | – | – | – | – | – | 24.2 | 69 | 39.6 | 25 | 60 | 45 | 45 | – | minimal effective concentration (N. fowleri trophozoites; 24 h): ≥ 6.25 µM; Cytotoxicity against HaCaT cells (HaCaT cells; human, 24 h): 3% |
| CN(C)C(=N)NC(=N)N [Metformin, 1-carbamimidamido-N,N-dimethylmethanimidamide] | 12.5 | – | – | – | – | 134 | – | – | – | – | – | – | – | Inhibition of excystation of N. fowleri (N. fowleri cysts; [5]): did not inhibit excystation |
